Test system: 616215-338-R-J1-PDC tumor spheroids, viability
Assay: Anticancer human tumor 616215-338-R-J1-PDC patient-derived colon adenocarcinoma cell line growth inhibition [GQUAD]
Settings: spheroids with HUVEC and MSC; for IC50: curve of first compound; for viability, T/C: stronger effect = lower value
In short: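 Multi-cell-type spheroids of tumor cells with HUVEC and mesenchymal stem cells, treated with drug combinations. Concentrations descend in half-log steps from near clinical Cmax, or from 10 microM where Cmax is unknown; viability read-out.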

[1] = second compound 0.0316 µM, first compound 0.0316 µM
[2] = second compound 0.0316 µM, first compound 0.1 µM
[3] = second compound 0.0316 µM, first compound 0.316 µM
[4] = second compound 0.0316 µM, first compound 1 µM
[5] = second compound 0.0316 µM, first compound 3.16 µM
[6] = second compound 0.0316 µM, first compound 10 µM
[7] = second compound 0.1 µM, first compound 0.0316 µM
[8] = second compound 0.1 µM, first compound 0.1 µM
[9] = second compound 0.1 µM, first compound 0.316 µM
[10] = second compound 0.1 µM, first compound 1 µM
[11] = second compound 0.1 µM, first compound 3.16 µM
[12] = second compound 0.1 µM, first compound 10 µM
[13] = second compound 0.316 µM, first compound 0.0316 µM
[14] = second compound 0.316 µM, first compound 0.1 µM
[15] = second compound 0.316 µM, first compound 0.316 µM
[16] = second compound 0.316 µM, first compound 1 µM
[17] = second compound 0.316 µM, first compound 3.16 µM
[18] = second compound 0.316 µM, first compound 10 µM
[19] = second compound 1 µM, first compound 0.0316 µM
[20] = second compound 1 µM, first compound 0.1 µM
[21] = second compound 1 µM, first compound 0.316 µM
[22] = second compound 1 µM, first compound 1 µM
[23] = second compound 1 µM, first compound 3.16 µM
[24] = second compound 1 µM, first compound 10 µM
[25] = second compound 3.16 µM, first compound 0.0316 µM
[26] = second compound 3.16 µM, first compound 0.1 µM
[27] = second compound 3.16 µM, first compound 0.316 µM
[28] = second compound 3.16 µM, first compound 1 µM
[29] = second compound 3.16 µM, first compound 3.16 µM
[30] = second compound 3.16 µM, first compound 10 µM
[31] = second compound 10 µM, first compound 0.0316 µM
[32] = second compound 10 µM, first compound 0.1 µM
[33] = second compound 10 µM, first compound 0.316 µM
[34] = second compound 10 µM, first compound 1 µM
[35] = second compound 10 µM, first compound 3.16 µM
[36] = second compound 10 µM, first compound 10 µM
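Note: spheroids exposed to agents for 7 days before readout.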
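Throughout, for viability, T/C: percent viability relative to DMSO vehicle control wells taken as 100%.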

Work on CCCS(=O)(=O)Nc1ccc(F)c(C(=O)c2c[nH]c3ncc(-c4ccc(Cl)cc4)cc23)c1F + Cc1cnc(CNC(=O)c2c(=O)c3ccc(N4CCCN(C)CC4)nc3n3c2sc2ccccc23)cn1 yielded an IC50 (second compound 0.0316 µM) of 5390 nM, an IC50 (second compound 0.1 µM) of 2100 nM and an IC50 (second compound 0.316 µM) of under 31.6 nM. It also gave an IC50 (second compound 1 µM) of under 31.6 nM, an IC50 (second compound 3.16 µM) of under 31.6 nM and an IC50 (second compound 10 µM) of under 31.6 nM. For the same compound, the viability, T/C [1] was 107%, the viability, T/C [2] was 110% and the viability, T/C [3] was 113%. It also gave a viability, T/C [4] of 104%, a viability, T/C [5] of 90% and a viability, T/C [6] of 3.94%. It also gave a viability, T/C [7] of 58.2%, a viability, T/C [8] of 59% and a viability, T/C [9] of 56%. For the same compound, the viability, T/C [10] was 48.5%, the viability, T/C [11] was 49.9% and the viability, T/C [12] was 10.5%. It also gave a viability, T/C [13] of 34.4%, a viability, T/C [14] of 43.5% and a viability, T/C [15] of 38.5%. The viability, T/C [16] was 38.4%, the viability, T/C [17] was 33.1% and the viability, T/C [18] was 8.31%. It also gave a viability, T/C [19] of 31%, a viability, T/C [20] of 34.2% and a viability, T/C [21] of 36.7%. For the same compound, the viability, T/C [22] was 35.9%, the viability, T/C [23] was 37.1% and the viability, T/C [24] was 4.42%. It also gave a viability, T/C [25] of 31.1%, a viability, T/C [26] of 18.5% and a viability, T/C [27] of 32.4%. It also gave a viability, T/C [28] of 23%, a viability, T/C [29] of 27.7% and a viability, T/C [30] of 0.11%. For the same compound, the viability, T/C [31] was 15.7%, the viability, T/C [32] was 21.4% and the viability, T/C [33] was 27.6%. The viability, T/C [34] was 19.2%, the viability, T/C [35] was 23.9% and the viability, T/C [36] was 0.17%.
Compound O=C(NO)c1cnc(N2CCN(S(=O)(=O)c3ccc4ccccc4c3)CC2)nc1 + CN(C)c1ccc(Nc2c3ccc(NC(=O)CCN4CCCC4)cc3nc3cc(NC(=O)CCN4CCCC4)ccc23)cc1 has an IC50 (second compound 0.0316 µM) of 324 nM, an IC50 (second compound 0.1 µM) of 322 nM and an IC50 (second compound 0.316 µM) of 255 nM. For the same compound, the IC50 (second compound 1 µM) was 312 nM, the IC50 (second compound 3.16 µM) was 293 nM and the IC50 (second compound 10 µM) was 220 nM. For the same compound, the viability, T/C [1] was 104%, the viability, T/C [2] was 97.5% and the viability, T/C [3] was 51.4%. For the same compound, the viability, T/C [4] was 1.08%, the viability, T/C [5] was 0.1% and the viability, T/C [6] was 0.1%. The viability, T/C [7] was 105%, the viability, T/C [8] was 107% and the viability, T/C [9] was 50.8%. It also gave a viability, T/C [10] of 0.65%, a viability, T/C [11] of 0.04% and a viability, T/C [12] of 0.07%. The viability, T/C [13] was 99.6%, the viability, T/C [14] was 103% and the viability, T/C [15] was 38.2%. For the same compound, the viability, T/C [16] was 0.54%, the viability, T/C [17] was 0.02% and the viability, T/C [18] was 0.06%. For the same compound, the viability, T/C [19] was 96.5%, the viability, T/C [20] was 98.1% and the viability, T/C [21] was 49.5%. For the same compound, the viability, T/C [22] was 0.3%, the viability, T/C [23] was 0.03% and the viability, T/C [24] was 0.07%. It also gave a viability, T/C [25] of 89.9%, a viability, T/C [26] of 93.7% and a viability, T/C [27] of 47%. The viability, T/C [28] was 0.25%, the viability, T/C [29] was 0.07% and the viability, T/C [30] was 0.1%. For the same compound, the viability, T/C [31] was 101%, the viability, T/C [32] was 80.5% and the viability, T/C [33] was 37.7%. For the same compound, the viability, T/C [34] was 0.24%, the viability, T/C [35] was 0.16% and the viability, T/C [36] was 0.17%.

Source: PubChem BioAssay AID2060493 (Molecular Pharmacology Branch, DTP, NCI, 2025)
